The results in this text go back to paper PMC6327487, “A cytosolic NAD^+-dependent GPDH from maize (ZmGPDH1) is involved in conferring salt and osmotic stress tolerance” (BMC Plant Biology, 2019).

The target of one data set is T1, ZmGPDH1 (Zea mays, UniProt A0A345VNI6).
T1 construct: gene GPDH1; full-length CDS (458 residues, 51 kDa; 1377 bp) in pET32a(+) NcoI/XhoI, 6xHis fusion of about 65 kDa, E. coli Rosetta (DE3), Ni-NTA
T1 sequence (A0A345VNI6 1-458): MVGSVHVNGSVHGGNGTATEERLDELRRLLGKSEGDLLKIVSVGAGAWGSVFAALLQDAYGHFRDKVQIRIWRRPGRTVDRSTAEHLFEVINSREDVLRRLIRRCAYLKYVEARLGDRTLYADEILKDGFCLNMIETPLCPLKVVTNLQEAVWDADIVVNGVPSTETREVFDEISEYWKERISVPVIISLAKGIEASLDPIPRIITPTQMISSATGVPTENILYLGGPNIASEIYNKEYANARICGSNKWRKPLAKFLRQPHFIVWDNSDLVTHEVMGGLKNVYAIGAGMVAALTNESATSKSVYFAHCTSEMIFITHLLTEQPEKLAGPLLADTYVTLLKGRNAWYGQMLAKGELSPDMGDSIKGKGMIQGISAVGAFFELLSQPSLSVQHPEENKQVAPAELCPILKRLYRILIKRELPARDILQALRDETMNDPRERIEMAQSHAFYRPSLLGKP
Nature of the data set: GPDH activity with and without NADH. Type of data set: biochemical. The settings on record: 4 mM DHAP, 0.2 mM NADH, 100 mM HEPES pH 6.9 (general assay).

Substrate in the data set “purified protein”: O=C(CO)COP(=O)(O)O
In words: purified protein. The conditions noted are these: DHAP reduction, 0.2 mM NADH, 100 mM HEPES pH 6.9 (general assay). Type of data set: biochemical, Zea mays.

Consider `NC(=O)C1=CN([C@@H]2O[C@H](COP(=O)(O)OP(=O)(O)OC[C@H]3O[C@@H](n4cnc5c(N)ncnc54)[C@H](O)[C@@H]3O)[C@@H](O)[C@H]2O)C=CC1` [NADH], for which the “GPDH activity with and without NADH” value on ZmGPDH1 is “addition of NADH strongly stimulated the enzyme activity”.

B1: ZmGPDH1 (Zea mays subsp. mays) (protein)
chain: MVGSVHVNGSVHGGNGTATEERLDELRRLLGKSEGDLLKIVSVGAGAWGSVFAALLQDAYGHFRDKVQIRIWRRPGRTVDRSTAEHLFEVINSREDVLRRLIRRCAYLKYVEARLGDRTLYADEILKDGFCLNMIETPLCPLKVVTNLQEAVWDADIVVNGVPSTETREVFDEISEYWKERISVPVIISLAKGIEASLDPIPRIITPTQMISSATGVPTENILYLGGPNIASEIYNKEYANARICGSNKWRKPLAKFLRQPHFIVWDNSDLVTHEVMGGLKNVYAIGAGMVAALTNESATSKSVYFAHCTSEMIFITHLLTEQPEKLAGPLLADTYVTLLKGRNAWYGQMLAKGELSPDMGDSIKGKGMIQGISAVGAFFELLSQPSLSVQHPEENKQVAPAELCPILKRLYRILIKRELPARDILQALRDETMNDPRERIEMAQSHAFYRPSLLGKP
notes: full-length CDS (458 residues, 51 kDa; 1377 bp) in pET32a(+) NcoI/XhoI, 6xHis fusion of about 65 kDa, E. coli Rosetta (DE3), Ni-NTA
On to B1, for which the Km in “purified protein” stood at 2.75 mM.

As usually defined, the Km is the substrate concentration at which the rate is half of its maximum.
